In patent US20250353873A1, “COMPOUNDS AND METHODS FOR MODULATING APOE EXPRESSION” (Ionis Pharmaceuticals, Inc., priority 2024, published 2025):
Strand notation (5' to 3'): a small letter for the sugar, then the base; units joined by * are phosphorothioate-linked, units joined directly phosphodiester-linked; [ ] holds rarer units or linkages, { } end groups; capitals alone tell only the bases. [ms] = mesyl phosphoramidate linkage; e = 2'-O-(2-methoxyethyl) (MOE); [5mC] = 5-methylcytosine; d = 2'-deoxy (DNA)

Key:
human APOE RNA [1] = test: Activity in APOE C57BL/6NTac-Apoeem7250 knock-in mice, single ICV bolus, 8 weeks (Example 11); type: in vivo; settings: single ICV bolus 300 μg, 8 weeks post treatment, normalized to mouse Ppia
Experimental: Modified oligonucleotides described above were tested in the APOE C57BL/6NTac-Apoeem7250 knock-in mouse model described above.
Each mouse received a single ICV bolus of 300 μg of modified oligonucleotide. A group of 3-4 mice received a single ICV bolus with PBS as a negative control.
Eight weeks post treatment, mice were sacrificed and RNA was extracted from cortical brain tissue and spinal cord for quantitative real-time RT-PCR analysis of RNA expression of APOE using human primer probe set RTS3073 (described herein above). APOE RNA levels were normalized to mouse Ppia. Mouse Ppia was amplified using primer probe set m_cyclo24 (described herein above). Results are presented as percent human APOE RNA relative to the amount of human APOE RNA in PBS treated animals, (% control). Each experiment is identified in separate tables below.

human APOE RNA [2] = test: Activity in APOE C57BL/6NTac-Apoeem7250 knock-in mice, single ICV bolus, 16 weeks (Example 12); type: in vivo; settings: single ICV bolus 300 μg, 16 weeks post treatment, normalized to mouse Ppia
Procedure, shortened: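 Knock-in mice (3-4 per group) received one ICV bolus of 300 μg oligonucleotide, PBS as control. After 16 weeks, human APOE RNA in cortex and spinal cord measured by RT-qPCR, normalized to mouse Ppia, and reported as % of PBS control.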

Row | Substance | APOE RNA (% control) Cortex (human APOE RNA [1]) | APOE RNA (% control) Spinal Cord (human APOE RNA [1]) | APOE RNA (% control) Cortex (human APOE RNA [2]) | APOE RNA (% control) Spinal Cord (human APOE RNA [2])
1 | 1681006: 5-10-5 MOE gapmer GGTGAATCTTTATTAAACTA, linkages ssssszsssszzszzssss (antisense eG*eG*eT*eG*eA*dA[ms]dT*d[5mC]*dT*dT*dT[ms]dA[ms]dT*dT[ms]dA[ms]eA*eA*e[5mC]*eT*eA) [compound 1681006] | 85 % control | 71 % control | 120 % control | 80 % control
2 | 1693039: 5-10-5 MOE gapmer CTTGGTGAATCTTTATTAAA, linkages sssosszzzssssssooss (antisense e[5mC]*eT*eT*eGeG*dT*dG[ms]dA[ms]dA[ms]dT*d[5mC]*dT*dT*dT*dA*eTeTeA*eA*eA) [compound 1693039] | 90 % control | 71 % control | 127 % control | 99 % control
3 | 1693043: 5-10-5 MOE gapmer CTTGGTGAATCTTTATTAAA, linkages sssoszzzzssssssosss (antisense e[5mC]*eT*eT*eGeG*dT[ms]dG[ms]dA[ms]dA[ms]dT*d[5mC]*dT*dT*dT*dA*eTeT*eA*eA*eA) [compound 1693043] | 89 % control | 83 % control | 80 % control | 73 % control
4 | 1681007: 5-10-5 MOE gapmer GGTGAATCTTTATTAAACTA, linkages zsssszsssszzszssszz (antisense eG[ms]eG*eT*eG*eA*dA[ms]dT*d[5mC]*dT*dT*dT[ms]dA[ms]dT*dT[ms]dA*eA*eA*e[5mC][ms]eT[ms]eA) [compound 1681007] | 71 % control | 47 % control | 96 % control | 67 % control
5 | 1681004: 5-10-5 MOE gapmer GGTGAATCTTTATTAAACTA, linkages ssooszsssszzszsooss (antisense eG*eG*eTeGeA*dA[ms]dT*d[5mC]*dT*dT*dT[ms]dA[ms]dT*dT[ms]dA*eAeAe[5mC]*eT*eA) [compound 1681004] | 120 % control | 89 % control | 127 % control | 61 % control
6 | 1693082: 6-10-4 MOE gapmer TTGGTGAATCTTTATTAAAC, linkages ssssoozzszssszsssss (eT*eT*eG*eG*eTeGdA[ms]dA[ms]dT*d[5mC][ms]dT*dT*dT*dA[ms]dT*dT*eA*eA*eA*e[5mC]) [compound 1693082] | 113 % control | 54 % control | 81 % control | 72 % control
7 | 1681005: 5-10-5 MOE gapmer GGTGAATCTTTATTAAACTA, linkages ssssszsssszzszsssss (antisense eG*eG*eT*eG*eA*dA[ms]dT*d[5mC]*dT*dT*dT[ms]dA[ms]dT*dT[ms]dA*eA*eA*e[5mC]*eT*eA) [compound 1681005] | 101 % control | 70 % control | 116 % control | 68 % control
8 | 1652903: 6-10-4 MOE gapmer ACTTGGTGAATCTTTATTAA, linkages sooooossssssssssoss (antisense eA*e[5mC]eTeTeGeGdT*dG*dA*dA*dT*d[5mC]*dT*dT*dT*dA*eTeT*eA*eA) [compound 1652903] | 49 % control | 19 % control | 87 % control | 39 % control
9 | 1681003: 5-10-5 MOE gapmer GGTGAATCTTTATTAAACTA, linkages soooszsssszzszsooss (antisense eG*eGeTeGeA*dA[ms]dT*d[5mC]*dT*dT*dT[ms]dA[ms]dT*dT[ms]dA*eAeAe[5mC]*eT*eA) [compound 1681003] | 90 % control | 48 % control | 106 % control | 61 % control
10 | 1693047: 5-10-5 MOE gapmer CTTGGTGAATCTTTATTAAA, linkages sssoszzzzssssszosss (antisense e[5mC]*eT*eT*eGeG*dT[ms]dG[ms]dA[ms]dA[ms]dT*d[5mC]*dT*dT*dT*dA[ms]eTeT*eA*eA*eA) [compound 1693047] | 78 % control | 77 % control | 97 % control | 71 % control
